This passage reports IC50 results from patent US11739098B2 (BRISTOL-MYERS SQUIBB COMPANY, priority 2017, dated 2023).

Where only a bound is given, the exact number is not on record here.

What all share (type): cell-based
The target of one test is T1, human TLR7 (Homo sapiens, UniProt Q9NYK1).
T1 construct: host or cells: HEK-Blue cells (HEK293-derived reporter line)
T1 sequence (Q9NYK1 27-1049): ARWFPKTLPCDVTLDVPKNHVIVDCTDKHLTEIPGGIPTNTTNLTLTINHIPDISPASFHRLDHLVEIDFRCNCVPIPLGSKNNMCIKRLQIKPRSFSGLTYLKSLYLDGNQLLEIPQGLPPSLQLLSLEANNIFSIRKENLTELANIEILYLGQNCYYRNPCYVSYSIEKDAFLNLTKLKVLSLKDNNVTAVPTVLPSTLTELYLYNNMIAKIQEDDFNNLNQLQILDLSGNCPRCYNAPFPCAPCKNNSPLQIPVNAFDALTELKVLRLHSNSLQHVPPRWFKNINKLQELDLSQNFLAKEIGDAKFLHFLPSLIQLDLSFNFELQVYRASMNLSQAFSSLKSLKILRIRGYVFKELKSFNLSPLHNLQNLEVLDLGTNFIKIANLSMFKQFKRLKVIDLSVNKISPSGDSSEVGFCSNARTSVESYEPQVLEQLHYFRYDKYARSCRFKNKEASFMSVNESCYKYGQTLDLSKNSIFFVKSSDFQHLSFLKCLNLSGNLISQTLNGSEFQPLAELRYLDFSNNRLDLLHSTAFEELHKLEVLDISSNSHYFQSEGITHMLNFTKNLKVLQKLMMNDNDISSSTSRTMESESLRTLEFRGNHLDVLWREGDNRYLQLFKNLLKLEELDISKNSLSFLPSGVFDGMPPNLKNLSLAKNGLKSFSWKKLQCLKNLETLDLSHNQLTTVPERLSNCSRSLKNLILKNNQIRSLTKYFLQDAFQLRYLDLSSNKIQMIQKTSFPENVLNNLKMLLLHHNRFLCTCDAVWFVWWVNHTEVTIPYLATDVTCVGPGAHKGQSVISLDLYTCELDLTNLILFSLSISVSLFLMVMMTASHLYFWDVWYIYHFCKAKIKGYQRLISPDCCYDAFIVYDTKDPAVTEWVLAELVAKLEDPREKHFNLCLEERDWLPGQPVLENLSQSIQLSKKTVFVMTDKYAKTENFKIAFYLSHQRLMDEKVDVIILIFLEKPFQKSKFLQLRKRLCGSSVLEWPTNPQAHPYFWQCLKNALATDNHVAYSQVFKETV
Put plainly: TLR7 inhibition reporter assay (HEK-Blue cells, SEAP reporter, gardiquimod stimulation). The settings on record: HEK-Blue cells overexpressing human TLR7, SEAP reporter, gardiquimod 7.5 μM. The gist of the method: (§1)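 Cells seeded per well (15000 TLR7, 20,000 TLR8, 25,000 TLR9); compound added over 0.05 nM–50 μM for 30 min at room temperature; agonist added (TLR7 gardiquimod 7.5 μM, TLR8 R848 15.9 μM, TLR9 ODN2006 5 nM); 22 h at 37 °C; SEAP measured; percent inhibition calculated.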
Background: Reporter assays use an easily measured gene product as a stand-in for the process of interest.

In another test the target is T2, human TLR8 (Homo sapiens, UniProt Q9NR97).
T2 construct: host or cells: HEK-Blue cells (HEK293-derived reporter line)
T2 sequence (Q9NR97 27-1041): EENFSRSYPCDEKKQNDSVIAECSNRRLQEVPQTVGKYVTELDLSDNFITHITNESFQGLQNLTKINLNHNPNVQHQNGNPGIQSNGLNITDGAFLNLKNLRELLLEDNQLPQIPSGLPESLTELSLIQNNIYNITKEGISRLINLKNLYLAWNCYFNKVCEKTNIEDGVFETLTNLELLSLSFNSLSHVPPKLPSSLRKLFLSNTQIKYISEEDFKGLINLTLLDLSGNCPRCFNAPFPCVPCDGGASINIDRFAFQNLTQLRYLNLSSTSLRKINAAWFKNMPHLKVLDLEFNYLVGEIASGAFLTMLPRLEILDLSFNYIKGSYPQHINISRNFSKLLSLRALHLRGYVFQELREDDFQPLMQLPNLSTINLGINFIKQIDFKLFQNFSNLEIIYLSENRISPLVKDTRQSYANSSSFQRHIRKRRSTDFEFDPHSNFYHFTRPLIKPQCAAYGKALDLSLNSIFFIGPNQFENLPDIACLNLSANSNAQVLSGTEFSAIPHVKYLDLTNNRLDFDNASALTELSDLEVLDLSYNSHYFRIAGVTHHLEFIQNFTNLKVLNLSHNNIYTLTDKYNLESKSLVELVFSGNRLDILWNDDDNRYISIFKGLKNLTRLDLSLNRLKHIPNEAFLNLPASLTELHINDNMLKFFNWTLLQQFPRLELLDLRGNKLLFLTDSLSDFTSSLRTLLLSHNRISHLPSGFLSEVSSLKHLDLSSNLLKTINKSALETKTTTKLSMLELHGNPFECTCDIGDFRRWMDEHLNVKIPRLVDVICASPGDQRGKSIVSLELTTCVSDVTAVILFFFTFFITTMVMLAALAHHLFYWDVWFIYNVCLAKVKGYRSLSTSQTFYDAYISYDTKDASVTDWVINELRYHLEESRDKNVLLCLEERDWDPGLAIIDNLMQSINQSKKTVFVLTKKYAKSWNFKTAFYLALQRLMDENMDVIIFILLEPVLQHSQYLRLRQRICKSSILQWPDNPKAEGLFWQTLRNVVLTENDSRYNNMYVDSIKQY
Put plainly: TLR8 inhibition reporter assay (HEK-Blue cells, SEAP reporter, R848 stimulation). The settings on record: HEK-Blue cells overexpressing human TLR8, SEAP reporter, R848 15.9 μM. The method in brief:
as §1

The target in the next test is T3, human TLR9 (Homo sapiens, UniProt Q9NR96).
T3 construct: host or cells: HEK-Blue cells (HEK293-derived reporter line)
T3 sequence (Q9NR96 26-1032): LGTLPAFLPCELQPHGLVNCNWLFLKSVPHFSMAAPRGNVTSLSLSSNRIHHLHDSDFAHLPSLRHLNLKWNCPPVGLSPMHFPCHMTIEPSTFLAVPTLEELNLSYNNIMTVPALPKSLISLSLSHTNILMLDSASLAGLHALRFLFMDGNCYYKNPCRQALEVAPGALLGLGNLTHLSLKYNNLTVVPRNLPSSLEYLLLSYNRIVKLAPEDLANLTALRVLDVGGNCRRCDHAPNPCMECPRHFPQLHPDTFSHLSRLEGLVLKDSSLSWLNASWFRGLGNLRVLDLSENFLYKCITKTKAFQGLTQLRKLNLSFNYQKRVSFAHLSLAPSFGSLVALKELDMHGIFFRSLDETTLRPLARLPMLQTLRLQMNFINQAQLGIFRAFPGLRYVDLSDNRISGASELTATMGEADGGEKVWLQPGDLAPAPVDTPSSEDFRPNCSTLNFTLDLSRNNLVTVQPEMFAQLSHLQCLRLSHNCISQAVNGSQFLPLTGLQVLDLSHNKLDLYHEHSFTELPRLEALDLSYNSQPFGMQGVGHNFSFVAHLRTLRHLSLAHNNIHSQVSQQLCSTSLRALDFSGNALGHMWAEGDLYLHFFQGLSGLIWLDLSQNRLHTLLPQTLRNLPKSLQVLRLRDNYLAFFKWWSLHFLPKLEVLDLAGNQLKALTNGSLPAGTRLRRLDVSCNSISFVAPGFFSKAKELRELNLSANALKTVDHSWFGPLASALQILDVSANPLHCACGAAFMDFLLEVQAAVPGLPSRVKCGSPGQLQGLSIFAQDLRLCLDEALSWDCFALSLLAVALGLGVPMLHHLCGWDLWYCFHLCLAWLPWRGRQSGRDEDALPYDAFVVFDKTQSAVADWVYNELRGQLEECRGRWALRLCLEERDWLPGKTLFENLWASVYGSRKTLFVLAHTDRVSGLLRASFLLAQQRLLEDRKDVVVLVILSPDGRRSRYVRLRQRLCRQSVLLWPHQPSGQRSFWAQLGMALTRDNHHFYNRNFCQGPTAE
The test is described as follows: TLR9 inhibition reporter assay (HEK-Blue cells, SEAP reporter, ODN2006 stimulation). The settings on record: HEK-Blue cells overexpressing human TLR9, SEAP reporter, ODN2006 5 nM. The method in brief: as §1

In general, IC50 refers to the concentration that gives 50% inhibition. A higher IC50 goes with lower potency. For the compound `CNCC(=O)N1CCC(c2ccc3[nH]c(-c4cc(C)c5ncccc5c4)c(C(C)C)c3c2)CC1` [Example 560, 1-(4-(3-isopropyl-2-(8-methylquinolin-6-yl)-1H-indol-5-yl)piperidin-1-yl)-2-(methylamino)ethan-1-one], the figures for the concentration for half-maximal inhibition (IC50) on human TLR7, at human TLR8 and at human TLR9 were below 100 nM, below 100 nM and 1000 to 50000 nM, respectively.
On to `CC(C)c1c(-c2cnc3nn(C)cc3c2)[nH]c2ccc(C3CCN(CC(C)(C)O)CC3)cc12` [Example 765, 1-(4-(3-isopropyl-2-(2-methyl-2H-pyrazolo[3,4-b]pyridin-5-yl)-1H-indol-5-yl)piperidin-1-yl)-2-methylpropan-2-ol], for which the IC50 at human TLR7 lay in the range of 100 to 1000 nM; against human TLR8, 1000 to 50000 nM; on human TLR9, 1000 to 50000 nM.
`Cc1c(-c2[nH]c3ccc(C4CCNCC4)cc3c2C(C)C)nn2ncnc2c1C` [Example 32, 6-(3-isopropyl-5-(piperidin-4-yl)-1H-indol-2-yl)-7,8-dimethyl-[1,2,4]triazolo[1,5-b]pyridazine]: the 50% inhibitory concentration (IC50) against human TLR7 is below 100 nM; against human TLR8 it was below 100 nM; on human TLR9 it was 1000 to 50000 nM.
Consider `CCc1c(-c2ccn3ccnc3c2)[nH]c2ccc(C3CCNCC3)cc12` [Example 202, 7-(3-ethyl-5-(piperidin-4-yl)-1H-indol-2-yl)imidazo[1,2-a]pyridine], for which the concentration for half-maximal inhibition (IC50) is 1000 to 50000 nM at human TLR7, 1000 to 50000 nM against human TLR8 and 100 to 1000 nM at human TLR9.
Consider `Cc1cc2cc(-c3[nH]c4ccc(C5CCN(C(=O)CN(C)C)CC5)cc4c3C(C)C)ccn2n1` [Example 535, 2-(dimethylamino)-1-(4-(3-isopropyl-2-(2-methylpyrazolo[1,5-a]pyridin-5-yl)-1H-indol-5-yl)piperidin-1-yl)ethan-1-one], for which the figures for the IC50 against human TLR7, against human TLR8 and against human TLR9 were 100 to 1000 nM, 1000 to 50000 nM and 1000 to 50000 nM, respectively.
Regarding `CC(C)c1c(-c2cn(C)c3ncccc23)[nH]c2ccc(C3CCN(C4CCOCC4)CC3)cc12` [Example 694, 3-(3-isopropyl-5-(1-(tetrahydro-2H-pyran-4-yl)piperidin-4-yl)-1H-indol-2-yl)-1-methyl-1H-pyrrolo[2,3-b]pyridine], the concentration for half-maximal inhibition (IC50) on human TLR7 is below 100 nM; against human TLR8 it was below 100 nM; on human TLR9, 1000 to 50000 nM.
For the compound `Cc1cc2nc(-c3[nH]c4ccc(C5CCNCC5)cc4c3C(C)C)ccn2n1` [Example 149, 5-(3-isopropyl-5-(piperidin-4-yl)-1H-indol-2-yl)-2-methylpyrazolo[1,5-a]pyrimidine], the concentration for half-maximal inhibition (IC50) at human TLR7 was 100 to 1000 nM; against human TLR8, 1000 to 50000 nM; on human TLR9 it was 1000 to 50000 nM.
In the case of `CC(C)(O)CC(=O)N1CCC(c2ccc3[nH]c(-c4cc(F)c5nccn5c4)c(CC(F)F)c3c2)CC1` [Example 606, 1-(4-(3-(2,2-difluoroethyl)-2-(8-fluoroimidazo[1,2-a]pyridin-6-yl)-1H-indol-5-yl)piperidin-1-yl)-3-hydroxy-3-methylbutan-1-one], the IC50 against human TLR7 is 100 to 1000 nM; against human TLR8, above 3130 nM; against human TLR9 it was 1000 to 50000 nM.
For `Cc1cc(-c2[nH]c3ccc(C4CCN(C(=O)CN(C)C)CC4)cc3c2C(C)C)cc2cnnn12` [Example 488, 2-(dimethylamino)-1-(4-(3-isopropyl-2-(7-methyl-[1,2,3]triazolo[1,5-a]pyridin-5-yl)-1H-indol-5-yl)piperidin-1-yl)ethan-1-one], in that order: below 100 nM, below 100 nM and 1000 to 50000 nM.
For `Cc1cc(-c2[nH]c3ccc(C4CCN(C(=O)CN(C)C)CC4)cc3c2C(C)C)c(C)n2nnnc12` [Example 469, 2-(dimethylamino)-1-(4-(2-(5,8-dimethyltetrazolo[1,5-a]pyridin-6-yl)-3-isopropyl-1H-indol-5-yl)piperidin-1-yl)ethan-1-one], in that order: below 100 nM, below 100 nM and 1000 to 50000 nM.
For `COc1cc(-c2[nH]c3ccc(C4CCN(CC(=O)N(C)C)CC4)cc3c2C(C)C)cc2nc(C)nn12` [Example 348, 2-(4-(3-isopropyl-2-(5-methoxy-2-methyl-[1,2,4]triazolo[1,5-a]pyridin-7-yl)-1H-indol-5-yl)piperidin-1-yl)-N,N-dimethylacetamide], in that order: below 100 nM, below 100 nM and 1000 to 50000 nM.
For the compound `Cc1cc(-c2[nH]c3ccc(C4CCNCC4)cc3c2C(C)C)nn2ncnc12` [Example 30, 6-(3-isopropyl-5-(piperidin-4-yl)-1H-indol-2-yl)-8-methyl-[1,2,4]triazolo[1,5-b]pyridazine], the results for the 50% inhibitory concentration (IC50) against human TLR7, against human TLR8 and on human TLR9 were below 100 nM, below 100 nM and 1000 to 50000 nM, respectively.
With `CC(C)c1c(-c2ccn3cnnc3c2)[nH]c2ccc(C3CCN(CC(=O)N(C)C)CC3)cc12` [Example 305, 2-(4-(2-([1,2,4]triazolo[4,3-a]pyridin-7-yl)-3-isopropyl-1H-indol-5-yl)piperidin-1-yl)-N,N-dimethylacetamide], the IC50 against human TLR7 lay within 100 to 1000 nM; against human TLR8, 100 to 1000 nM; at human TLR9, 1000 to 50000 nM.
